In brackets after ≈: the same amount, converted by molar mass. Activity calls are given as the source filed them. The calls are words filed in the database; no cut-off is given here.
Key:
Klebsiella pneumoniae [1] = experiment: Anti- biofilm activity against Klebsiella pneumoniae assessed as biofilm viability at 1 time MIC relative to control; format: functional
Staphylococcus aureus [2] = experiment: Antibacterial activity against Staphylococcus aureus 25923 assessed as inhibition of bacterial growth by two fold serial dilution method; format: functional
Pseudomonas aeruginosa [3] = experiment: Antibacterial activity against Pseudomonas aeruginosa assessed as inhibition of bacterial growth by two fold serial dilution method; format: functional
Klebsiella pneumoniae [4] = experiment: Bactericidal activity against Klebsiella pneumoniae assessed as reduction in bacterial growth at 4 times MIC and measured within 2 hrs by time-kill kinetic assay relative to control; format: functional; design: scale not given: the % may be the effect or the level left
Cell membrane [5] = experiment: Induction of cytoplasmic membrane depolarization in Acinetobacter baumannii assessed as increase in fluorescence intensity at 0.5 to 4 times MIC and measured up to 100 mins by DiSC35 dye based fluorescence method; format: subcellular; conditions: TDE = time-dependent effect
Acinetobacter baumannii [6] = experiment: Anti- biofilm activity against Acinetobacter baumannii assessed as biofilm viability at 1 time MIC relative to control; format: functional
Acinetobacter baumannii [7] = experiment: Bactericidal activity against Acinetobacter baumannii assessed as reduction in bacterial growth at 4 times MIC and measured within 2 hrs by time-kill kinetic assay relative to control; format: functional; design: scale not given: the % may be the effect or the level left
Acinetobacter baumannii [8] = experiment: Antibacterial activity against Acinetobacter baumannii assessed as inhibition of bacterial growth by two fold serial dilution method; format: functional
Acinetobacter baumannii [9] = experiment: Anti- biofilm activity against Acinetobacter baumannii assessed as inhibition of biofilm formation at 4 times MIC relative to control; format: functional; design: scale not given: the % may be the effect or the level left
Klebsiella pneumoniae [10] = experiment: Induction of morphological changes in Klebsiella pneumoniae assessed as shrunken cell membrane at 2 times MIC for 4 hrs by SEM analysis; format: functional, organism-based
Acinetobacter baumannii [11] = experiment: Anti- biofilm activity against Acinetobacter baumannii assessed as biofilm viability at 2 times MIC relative to control; format: functional
Acinetobacter baumannii [12] = experiment: Anti- biofilm activity against Acinetobacter baumannii assessed as inhibition of biofilm formation at 6 times MIC relative to control; format: functional; design: scale not given: the % may be the effect or the level left
Cell membrane [13] = experiment: Induction of cytoplasmic membrane depolarization in Klebsiella pneumoniae assessed as increase in fluorescence intensity at 0.5 to 4 times MIC and measured up to 100 mins by DiSC35 dye based fluorescence method; format: subcellular; conditions: TDE = time-dependent effect
Acinetobacter baumannii [14] = experiment: Bactericidal activity against Acinetobacter baumannii assessed as reduction in bacterial growth at MIC and measured within 2 hrs by time-kill kinetic assay; format: functional
Klebsiella pneumoniae [15] = experiment: Induction of morphological changes in Klebsiella pneumoniae assessed as appearance of broken cell membrane at 2 times MIC for 4 hrs by SEM analysis; format: functional, organism-based
Klebsiella pneumoniae [16] = experiment: Induction of morphological changes in Klebsiella pneumoniae assessed as membrane rupture at 2 times MIC for 4 hrs by TEM analysis; format: functional, organism-based
Erythrocyte = experiment: Hemolytic activity in human RBC assessed as hemolysis at 512 ug/ml; format: toxicity, cell-based; conditions: dose 512 µg/ml
Cell membrane [17] = experiment: Induction of outer membrane permeabilization in Acinetobacter baumannii assessed as increase in fluorescence intensity at 4 times MIC by NPN-dye based fluorescence analysis; format: subcellular
Cell membrane [18] = experiment: Induction of cytoplasmic membrane depolarization in Acinetobacter baumannii assessed as increase in fluorescence intensity at 0.5 to 4 times MIC by DiSC35 dye based fluorescence method; conditions: DDE = dose-dependent effect
Klebsiella pneumoniae [19] = experiment: Anti- biofilm activity against Klebsiella pneumoniae assessed as inhibition of biofilm formation at 1 time MIC relative to control; format: functional; design: scale not given: the % may be the effect or the level left
Escherichia coli [20] = experiment: Antibacterial activity against Escherichia coli 25922 assessed as inhibition of bacterial growth by two fold serial dilution method; format: functional
Acinetobacter baumannii [21] = experiment: Antioxidant activity in Acinetobacter baumannii assessed as loss of GSH activity at 1 to 8 times MIC; format: functional, organism-based
Calf thymus DNA [22] = experiment: Binding affinity to calf thymus DNA assessed as reduction in fluorescence intensity of DNA-acridine orange complex by acridine orange dye based fluorescence analysis; format: nucleic-acid assay; conditions: Bos taurus
Enterococcus faecalis = experiment: Antibacterial activity against Enterococcus faecalis assessed as inhibition of bacterial growth by two fold serial dilution method; format: functional
Klebsiella pneumoniae [23] = experiment: Anti- biofilm activity against Klebsiella pneumoniae assessed as biofilm viability at 4 times MIC relative to control; format: functional
Klebsiella pneumoniae [24] = experiment: Induction of morphological changes in Klebsiella pneumoniae assessed as cytoplasmic sparsity at 2 times MIC for 4 hrs by TEM analysis; format: functional, organism-based
Calf thymus DNA [25] = experiment: Binding affinity to calf thymus DNA assessed as assessed as compound-DNA complex formation by measuring red shift by UV-visible absorption spectrophotometric method; format: nucleic-acid assay; conditions: Bos taurus
Acinetobacter baumannii [26] = experiment: Anti- biofilm activity against Acinetobacter baumannii assessed as inhibition of biofilm formation at 1 time MIC relative to control; format: functional; design: scale not given: the % may be the effect or the level left
Klebsiella pneumoniae [27] = experiment: Bactericidal activity against Klebsiella pneumoniae assessed as reduction in bacterial growth at MIC and measured within 2 hrs by time-kill kinetic assay; format: functional
Klebsiella pneumoniae [28] = experiment: Anti- biofilm activity against Klebsiella pneumoniae assessed as inhibition of biofilm formation at 4 times MIC relative to control; format: functional; design: scale not given: the % may be the effect or the level left
Klebsiella pneumoniae [29] = experiment: Induction of morphological changes in Klebsiella pneumoniae assessed as cell lysis at 2 times MIC for 4 hrs by TEM analysis; format: functional, organism-based
Klebsiella pneumoniae [30] = experiment: Anti- biofilm activity against Klebsiella pneumoniae assessed as biofilm viability at 6 times MIC relative to control; format: functional
Staphylococcus aureus [31] = experiment: Antibacterial activity against Staphylococcus aureus assessed as inhibition of bacterial growth by two fold serial dilution method; format: functional
Klebsiella pneumoniae [32] = experiment: Anti- biofilm activity against Klebsiella pneumoniae assessed as biofilm viability at 2 times MIC relative to control; format: functional
Acinetobacter baumannii [33] = experiment: Anti- biofilm activity against Acinetobacter baumannii assessed as biofilm viability at 6 times MIC relative to control; format: functional
[34] = Cytotoxicity against human endothelial cells assessed as viable cells upto 40 ug/ml relative to control; format: toxicity, cell-based, Endothelial cell; conditions: up to 40 µg/mL, read-out: Activity
Cell membrane [35] = experiment: Induction of cytoplasmic membrane depolarization in Klebsiella pneumoniae assessed as increase in fluorescence intensity at 0.5 to 4 times MIC by DiSC35 dye based fluorescence method; conditions: DDE = dose-dependent effect
Cell membrane [36] = experiment: Induction of inner membrane damage in Acinetobacter baumannii assessed as disruption of membrane integrity at 0.25 to 2 ug/ml by propidium iodide staining based fluorescence analysis; format: subcellular; conditions: dose 0.25-2 µg/ml
Cell membrane [37] = experiment: Induction of outer membrane permeabilization in Klebsiella pneumoniae assessed as increase in NPN fluorescence at 4 times MIC by NPN-dye based fluorescence analysis; format: subcellular
Klebsiella pneumoniae [38] = experiment: Antibacterial activity against Klebsiella pneumoniae assessed as inhibition of bacterial growth by two fold serial dilution method; format: functional
[39] = Cytotoxicity against human HepG2 cells assessed as viable cells upto 40 ug/ml relative to control; format: toxicity, cell-based; conditions: up to 40 µg/mL, read-out: Activity
Cell membrane [40] = experiment: Induction of inner membrane damage in Klebsiella pneumoniae assessed as disruption of membrane integrity at 0.25 to 2 ug/ml by propidium iodide staining based fluorescence analysis; format: subcellular; conditions: dose 0.25-2 µg/ml
Escherichia coli [41] = experiment: Antibacterial activity against Escherichia coli assessed as inhibition of bacterial growth by two fold serial dilution method; format: functional
Klebsiella pneumoniae [42] = experiment: Anti- biofilm activity against Klebsiella pneumoniae assessed as inhibition of biofilm formation at 2 times MIC relative to control; format: functional; design: scale not given: the % may be the effect or the level left
Acinetobacter baumannii [43] = experiment: Anti- biofilm activity against Acinetobacter baumannii assessed as inhibition of biofilm formation at 2 times MIC relative to control; format: functional; design: scale not given: the % may be the effect or the level left
Staphylococcus aureus [44] = experiment: Antibacterial activity against methicillin-resistant Staphylococcus aureus N315 assessed as inhibition of bacterial growth by two fold serial dilution method; format: functional
Klebsiella pneumoniae [45] = experiment: Antioxidant activity in Klebsiella pneumoniae assessed as loss of GSH activity at 1 to 8 times MIC; format: functional, organism-based
Staphylococcus aureus [46] = experiment: Antibacterial activity against Staphylococcus aureus 29213 assessed as inhibition of bacterial growth by two fold serial dilution method; format: functional
Klebsiella pneumoniae [47] = experiment: Anti- biofilm activity against Klebsiella pneumoniae assessed as inhibition of biofilm formation at 6 times MIC relative to control; format: functional; design: scale not given: the % may be the effect or the level left
Acinetobacter baumannii [48] = experiment: Anti- biofilm activity against Acinetobacter baumannii assessed as biofilm viability at 4 times MIC relative to control; format: functional
Acinetobacter baumannii [49] = experiment: Induction of ROS generation in Acinetobacter baumannii assessed as ROS accumulation at 1 to 8 times MIC by DCFH-DA dye based fluorescence assay; format: functional, organism-based; conditions: DDE = dose-dependent effect
Klebsiella pneumoniae [50] = experiment: Induction of ROS generation in Klebsiella pneumoniae assessed as ROS accumulation at 1 to 8 times MIC by DCFH-DA dye based fluorescence assay; format: functional, organism-based; conditions: DDE = dose-dependent effect
Pseudomonas aeruginosa [51] = experiment: Antibacterial activity against Pseudomonas aeruginosa 27853 assessed as inhibition of bacterial growth by two fold serial dilution method; format: functional

CCCCc1nc(Cl)c(C2NC(=O)NC(CN(c3cc(C)no3)S(=O)(=O)c3ccc(N)cc3)=C2C(=O)OCC)[nH]1 (stereo not drawn)
Activity (Klebsiella pneumoniae [1]): 85% | MIC (Staphylococcus aureus [2]): 8 µg/mL (≈ 13.5 µM) | MIC (Pseudomonas aeruginosa [3]): 4 µg/mL (≈ 6.76 µM) | Activity (Klebsiella pneumoniae [4]): 66.7% | Activity (Cell membrane [5]): Tde | Activity (Acinetobacter baumannii [6]): 87% | Activity (Acinetobacter baumannii [7]): 66.7% | MIC (Acinetobacter baumannii [8]): 0.5 µg/mL (≈ 0.844 µM) | Activity (Acinetobacter baumannii [9]): 58% | Activity (Klebsiella pneumoniae [10]): Active | Activity (Acinetobacter baumannii [11]): 83% | Activity (Acinetobacter baumannii [12]): 84% | Activity (Cell membrane [13]): Tde | Activity (Acinetobacter baumannii [14]): 2.4 log10CFU/ml | Activity (Klebsiella pneumoniae [15]): Active | Activity (Klebsiella pneumoniae [16]): Active | Activity (Erythrocyte): Non-Toxic | Activity (Cell membrane [17]): Active | Activity (Cell membrane [18]): Dde | Activity (Klebsiella pneumoniae [19]): 30% | MIC (Escherichia coli [20]): 1 µg/mL (≈ 1.69 µM) | Activity (Acinetobacter baumannii [21]): Active | Activity (Calf thymus DNA [22]): Active | MIC (Enterococcus faecalis): 16 µg/mL (≈ 27 µM) | Activity (Klebsiella pneumoniae [23]): 62% | Activity (Klebsiella pneumoniae [24]): Active | Activity (Calf thymus DNA [25]): Active | Activity (Acinetobacter baumannii [26]): 21% | Activity (Klebsiella pneumoniae [27]): 2.5 log10CFU/ml | Activity (Klebsiella pneumoniae [28]): 82% | Activity (Klebsiella pneumoniae [29]): Active | Activity (Klebsiella pneumoniae [30]): 36% | MIC (Staphylococcus aureus [31]): 2 µg/mL (≈ 3.38 µM) | Activity (Klebsiella pneumoniae [32]): 76% | Activity (Acinetobacter baumannii [33]): 41% | viability [34]: > 50% | Activity (Cell membrane [35]): Dde | Activity (Cell membrane [36]): Active | Activity (Cell membrane [37]): Active | MIC (Klebsiella pneumoniae [38]): 0.5 µg/mL (≈ 0.844 µM) | viability [39]: > 50% | Activity (Cell membrane [40]): Active | MIC (Escherichia coli [41]): 2 µg/mL (≈ 3.38 µM) | Activity (Klebsiella pneumoniae [42]): 66% | Activity (Acinetobacter baumannii [43]): 30% | MIC (Staphylococcus aureus [44]): 4 µg/mL (≈ 6.76 µM) | Activity (Klebsiella pneumoniae [45]): Active | MIC (Staphylococcus aureus [46]): 2 µg/mL (≈ 3.38 µM) | Activity (Klebsiella pneumoniae [47]): 89% | Activity (Acinetobacter baumannii [48]): 70% | Activity (Acinetobacter baumannii [49]): Dde | Activity (Klebsiella pneumoniae [50]): Dde | MIC (Pseudomonas aeruginosa [51]): 4 µg/mL (≈ 6.76 µM)
